The values that follow come from patent US20220202845A1, “METHODS AND COMPOSITIONS FOR TREATING CANCER” (Fred Hutchinson Cancer Research Center, priority 2018, published 2022).

Molecules are shown by their SMILES.

The test system of assay [1] is DUX4 mRNA. The assay can be described thus: DUX4 mRNA levels by RT-qPCR in SuSa testicular teratocarcinoma cells. The assay is classed as cell-based, human. The settings on record: varying concentrations, 20 hours, vs DMSO vehicle set to one. Here is the method: (§1) FIG. 13A-C. CDK7 inhibitor THZ1 reduces DUX4 expression in FSHD cells and cancer cells. (A) Differentiating MB200 FSHD2 patient-derived muscle cells, (B) SuSa testicular teratocarcinoma cells, or (C) KLE endometrial adenocarcinoma cells were treated with vehicle (−, DMSO) or varying concentrations of THZ1, as indicated, for 24 hours (A) or 20 hours (B-C) and cultures analyzed for DUX4 mRNA levels by RT-qPCR. […] Data are represented as relative expression (means, with error bars indicating standard deviation across three biological replicates) with expression in the absence of inhibitor set to one. FSHD muscle cells utilize DUX4 exon 3, while SuSa cells and KLE cells use DUX4 exon 3b.
(§2) Total RNA was extracted from whole cells using the NucleoSpin RNA kit (Machery-Nagel) according to the manufacturer's instructions. Isolated RNA was treated with DNase I (Thermo Fisher Scientific), heat inactivated, and reverse transcribed into cDNA using SuperScript III (Thermo Fisher Scientific) and oligo(dT) primers (Invitrogen) following the manufacturer's protocol. Quantitative PCR was carried out on a QuantStudio 7 Flex (Applied Biosystems) using primers specific for each mRNA and iTaq SYBR Green Supermix (Bio-Rad Laboratories, Inc.). […]
(§3) Next, the cells were analyzed for DUX4 mRNA levels by RT-qPCR.

For assay [2], the system named is DUX4 mRNA. The assay can be described thus: DUX4 mRNA levels by RT-qPCR in differentiating MB200 FSHD2 patient-derived muscle cells. It counts as cell-based, human. The settings on record: varying concentrations, 24 hours, vs DMSO vehicle set to one. On the procedure: as §1, §2, §3
Assay [3] has as its system DUX4 mRNA. The assay can be described thus: DUX4 mRNA levels by RT-qPCR in KLE endometrial adenocarcinoma cells. The settings on record: varying concentrations, 20 hours, vs DMSO vehicle set to one. It counts as cell-based, human. On the procedure: as §1, §2, §3
For a further assay, the target named is p38α (Homo sapiens, UniProt Q16539). The settings on record: fold selective over p38β; cited from earlier work.
p38α, sequence (Q16539 whole entry): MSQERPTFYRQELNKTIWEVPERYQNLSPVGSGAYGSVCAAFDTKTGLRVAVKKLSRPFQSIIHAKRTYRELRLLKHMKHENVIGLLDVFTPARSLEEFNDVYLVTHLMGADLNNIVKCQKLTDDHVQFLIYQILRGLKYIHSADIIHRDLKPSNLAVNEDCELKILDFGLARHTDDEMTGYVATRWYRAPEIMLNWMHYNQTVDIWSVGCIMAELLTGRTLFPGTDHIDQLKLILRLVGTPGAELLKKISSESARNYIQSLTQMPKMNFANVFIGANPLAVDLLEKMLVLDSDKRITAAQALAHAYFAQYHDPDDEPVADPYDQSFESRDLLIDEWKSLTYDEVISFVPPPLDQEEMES

Regarding `CN(C)C/C=C/C(=O)Nc1ccc(C(=O)Nc2cccc(Nc3ncc(Cl)c(-c4c[nH]c5ccccc45)n3)c2)cc1` [THZ1], the “DUX4 mRNA levels (relative expression)” value in the assay with DUX4 mRNA [1], in the assay on DUX4 mRNA [2] and in the assay on DUX4 mRNA [3] was “inhibits DUX4 expression” each time.

Consider `NC(=O)c1ccc(N(C(N)=O)c2c(F)cccc2F)nc1-c1ccc(F)cc1F` [VX-702], for which the “Selectivity for p38α over p38β” value on p38α is recorded as “p38α14X selective over p38β”. Turning to `O=c1ncn2nc(Sc3ccc(F)cc3F)ccc2c1-c1c(Cl)cccc1Cl` [VX-745], at p38α, the “Selectivity for p38α over p38β” value was “p38α22X selective over p38β”.
